Results as given in patent US8642793B1, “Biosurfactant produced by Aureobasidium pullulans” (Gyeongbuk Institute for Marine Bio-industry, priority 2012, dated 2014).
Like-named read-outs stand apart in the source and are kept apart here. Each block holds one compound with its values, some of them ahead of it.

Experiments:
[1] = Measurement of surface tension with a surface tension meter (Sigma 700, KSV Instruments); format: physicochemical
Method: Compound L9 isolated in Example 1 was dropped on a hydrophobic film, and surface tension variation was observed using a surface tension meter (Densitometer, Sigma 700 Densitometer (KSV Instruments Ltd., Finland)). Water was a control, and a culture medium and the size of compound L9 were compared. The numerical value of the surface tension was shown as (dyne/cm (or mN/m)). When a surfactant that has a hydrophobic moiety and a hydrophilic moiety is added to water, surface tension decreases. […] As the intermolecular interaction increases, the surface tension increases. Surface tensions of Compound L9 and known materials produced by bacteria (Table 2) and yeasts (Table 3) were measured, and the results are shown in Tables 2 and 3 below.

[2] = reference liquids of Table 1, no amount given; cited from earlier work

Surface tension ([1]; amount of material 1.5 mg/L): 31.5 dyne/cm | Surface tension ([1]; at 1.5 mg/litter): 31.5 mN/m | degree of activity (surface tension) ([1]; summary statement, no amount given): 31 dyne/cm
Compound: CCCCC[C@@H](O)C[C@@H](O)CC(=O)O[C@H](CCCCC)C[C@@H](O)CC(=O)O[C@H](CCCCC)C[C@@H](O)CC(=O)OCC(O)CO (stereo partly shown) [Compound L9]

Surface tension ([1]; amount of material 0.7 mg/L): 43.0 dyne/cm
Compound: Trehalose lipid

Compound: OCC(O)CO [Glycerin]
Surface tension [2]: 63 dyne/cm

Surface tension ([1]; amount of material 25 mg/L): 24.1 dyne/cm
Compound: Trehalos lipid

Surface tension ([1]; amount of material 300 mg/L): 26.0 dyne/cm
Compound: Flavolipid

Surface tension ([1]; amount of material 40 mg/L): 35.0 dyne/cm
Compound: Sophorolipid

Compound: Iturin
Surface tension ([1]; amount of material 20 mg/L): 43.0 dyne/cm

Surface tension ([1]; amount of material 30 mg/L): 31.4 dyne/cm
Compound: Rhamnolipid
